Converted amounts (≈) assume the structure as drawn. “And” between values parts separate entries of the source, which are not always exact repeats. Identical values can stand only once. Like-named read-outs stand apart in the source and are kept apart here. Some results are limits rather than exact numbers.

Data set [1] in a line: Solubility test (1% DMSO addition, pH 6.8 artificial intestinal juice). Type of data set: physicochemical. Particulars: 16 hours at 25° C.; for solubility at 16 h: pH 6.8 artificial intestinal juice with 1% DMSO, kinetic from dmso stock. Here is the method:
The solubility of the compound of the present invention was determined under 1% DMSO addition conditions. 10 mmol/L solution of the compound was prepared with DMSO, and 6 μL of the solution of the compound of the present invention was added to 594 μL of pH 6.8 artificial intestinal juice (118 mL of 0.2 mol/L NaOH test solution and water were added to 250 mL of 0.2 mol/L potassium dihydrogen phosphate test solution to reach 1000 mL). The mixture was left standing for 16 hours at 25° C., and the mixture was vacuum-filtered. The filtrate was two-fold diluted with methanol/water=1/1 (V/V), and the compound concentration in the filtrate was measured with HPLC or LC/MS/MS by the absolute calibration method.

Data set [2] in a line: Metabolism stability test. Type of data set: in vitro ADME. The conditions noted are these: human liver microsomes, 30 minutes, 37° C., NADPH, 0.5 μmol/L of test compound. The protocol: Using commercially available pooled human hepatic microsomes, the compound of the present invention was reacted for a constant time, a remaining rate was calculated by comparing a reacted sample and an unreacted sample, thereby, a degree of metabolism of the compound of the present invention in liver was assessed.
A reaction was performed (oxidative reaction) at 37° C. for 0 minute or 30 minutes in the presence of 1 mmol/L NADPH in 0.2 mL of a buffer (50 mmol/L Tris-HCl pH 7.4, 150 mmol/L potassium chloride, 10 mmol/L magnesium chloride) containing 0.5 mg protein/mL of human liver microsomes. After the reaction, 50 μL of the reaction solution was added to 100 μL of a methanol/acetonitrile=1/1 (v/v) solution, mixed and centrifuged at 3000 rpm for 15 minutes. The compound of the present invention in the supernatant was quantified by LC/MS/MS, and a remaining amount of the compound of the present invention after the reaction was calculated, letting a compound amount at 0 minute reaction time to be 100%. (Result) Remaining rate was shown at 0.5 μmol/L of test compound.

The next data set deals with recombinant human MGAT2 (Homo sapiens (Human), UniProt Q3SYC2). In words: Measurement of human MGAT2 inhibitory activity. Type of data set: biochemical. In short, it runs like this:
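Membrane fraction of Sf9 cells expressing N-terminally Flag-tagged full-length human MGAT2, incubated 1 h at room temperature in 100 mmol/L phosphate pH 7.4 with 2 mmol/L DTT. The substrate solution held 30 μmol/L 2-oleoylglycerol and 10 μmol/L oleoyl-CoA. Diolein product was quantified by RapidFire ESI Q-TOF MS against diolein-d5 internal standard; % inhibition was set relative to with/without-enzyme controls.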

Where [3] appears, read: read-out: IC50 (concentration exhibiting 50% enzyme inhibition), Table 52.
[4] abbreviates: read-out: IC50 (concentration exhibiting 50% enzyme inhibition), Table 53.

recombinant human MGAT2, sequence (Q3SYC2 whole entry): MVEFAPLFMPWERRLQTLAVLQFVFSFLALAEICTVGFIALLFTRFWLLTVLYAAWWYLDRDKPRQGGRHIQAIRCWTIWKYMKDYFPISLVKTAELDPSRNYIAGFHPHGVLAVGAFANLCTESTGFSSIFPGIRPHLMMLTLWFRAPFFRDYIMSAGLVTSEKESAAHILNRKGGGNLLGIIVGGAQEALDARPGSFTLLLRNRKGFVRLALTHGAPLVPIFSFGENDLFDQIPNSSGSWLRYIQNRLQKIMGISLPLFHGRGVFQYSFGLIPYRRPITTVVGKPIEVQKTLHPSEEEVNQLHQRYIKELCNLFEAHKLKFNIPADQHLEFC

As to `CS(=O)(=O)CC(=O)Nc1c2c(nn1CCCC(F)(F)F)C[C@@]1(CCc3cc(OCC(F)(F)F)ccc31)NC2=O` [Compound I-212], the solubility at 16 h in data set [1] is above 50 µM. Further, in data set [2], the “Remaining rate (%)” value came out at 62.6%.

For `O=C1N[C@@]2(CCc3cc(OCCCC(F)(F)F)ccc32)Cc2nn(CCC3CC3)c(-c3nn[nH]n3)c21` [Compound I-24], the “Solubility” value in data set [1] is above 50 µM. In addition, in data set [2], the “Remaining rate (%)” value stood at 78.2%. Also, the IC50 at recombinant human MGAT2 (setting [3]) amounted to 8.82 nM.

The compound `CS(=O)(=O)CC(=O)Nc1c2c(nn1-c1ccc(C#N)cn1)C[C@](c1ccc(OCC(F)(F)F)cc1F)(C(F)(F)F)NC2=O` [Compound I-170] returned a solubility at 16 h in data set [1] above 50 µM. Besides, the “Remaining rate (%)” value in data set [2] came out at 100%. The IC50 on recombinant human MGAT2 (setting [3]) was 5.1 nM.

In data set [1], `CS(=O)(=O)CC(=O)Nc1c2c(nn1-c1ccc(C#N)cn1)C[C@@]1(CCc3cc(OCC(F)(F)F)ccc31)NC2=O` [Compound I-167] yielded a solubility at 16 h above 50 µM. For the same compound, the “Remaining rate (%)” value in data set [2] stood at 89%. The IC50 on recombinant human MGAT2 (setting [3]) was determined as 3.3 nM.

Turning to `CS(=O)(=O)CC(=O)Nc1c2c(nn1CCCOC(F)(F)F)C[C@@]1(CCc3cc(OCC(F)(F)F)cc(F)c31)NC2=O` [II-93], in data set [1], the solubility at 16 h is above 50 µM. In addition, in data set [2], the “Remaining rate (%)” value is listed as 103%.

In data set [1], `CS(=O)(=O)CC(=O)Nc1c2c(nn1-c1ccc(F)cn1)C[C@]1(CCOc3cc(OCC(F)(F)F)ccc31)NC2=O` [II-295] showed a solubility at 16 h above 50 µM. For the same compound, in data set [2], the “Remaining rate (%)” value was 102%. The IC50 at recombinant human MGAT2 (setting [4]) was below 1 nM.

On to `Cc1ccc(-n2nc3c(c2NC(=O)CS(C)(=O)=O)C(=O)N[C@@]2(CCOc4cc(OCC(C)(F)F)ccc42)C3)nc1` [II-151], for which the solubility at 16 h in data set [1] is above 50 µM. In data set [2], the “Remaining rate (%)” value is reported as 82.6%.

Compound `Cc1ccc(-n2nc3c(c2NC(=O)CS(C)(=O)=O)C(=O)N[C@@]2(CCc4cc(OCC(F)(F)F)ccc42)C3)nc1` [Compound I-236] returned a solubility at 16 h in data set [1] above 50 µM. Also, in data set [2], the “Remaining rate (%)” value was 87.6%.

As to `CS(=O)(=O)CC(=O)Nc1c2c(nn1-c1ccccn1)C[C@]1(CCc3cc(OCCCC(F)(F)F)ccc31)NC2=O` [Compound I-23], the solubility at 16 h in data set [1] was determined as 48.2 µM (≈ 27.8 µg/mL). The “Remaining rate (%)” value in data set [2] stood at 98.7%.

As for `Cc1ccc(-n2nc3c(c2NC(=O)CS(C)(=N)=O)C(=O)N[C@@]2(CCc4cc(OCC(F)(F)F)ccc42)C3)nc1` (single isomer, unassigned) [II-276], in data set [1], the solubility at 16 h is above 50 µM. The “Remaining rate (%)” value in data set [2] was determined as 98.2%. For the same compound, the IC50 on recombinant human MGAT2 (setting [4]) was determined as 2.2 nM.

As to `CS(=O)(=O)CC(=O)Nc1c2c(nn1CCC1CC1)C[C@]1(CCc3cc(OCC(F)(F)F)ccc31)NC2=O` [Compound I-8], the solubility at 16 h in data set [1] is above 50 µM. The “Remaining rate (%)” value in data set [2] is listed as 102%.

The compound `CS(=O)(=O)CC(=O)Nc1c2c(nn1-c1ccc(F)c(F)c1)C[C@]1(CCOc3cc(CCC(F)(F)F)ccc31)NC2=O` [II-225] registered a solubility at 16 h in data set [1] of 45.1 µM (≈ 27 µg/mL). In data set [2], the “Remaining rate (%)” value is 104%.

Take `Cc1ccc(-n2nc3c(c2NC(=O)CS(C)(=O)=O)C(=O)N[C@@]2(CCOc4cc(OCC(F)(F)F)ccc42)C3)nc1` [Compound I-275]: the solubility at 16 h in data set [1] is above 50 µM. For the same compound, in data set [2], the “Remaining rate (%)” value amounted to 91.8%.

In data set [1], `CS(=O)(=O)CC(=O)Nc1c2c(nn1-c1ccc(C#N)cn1)C[C@]1(CCc3cc(OCC(F)(F)F)ccc31)NC2=O` [Compound I-190] yielded a solubility at 16 h above 50 µM. Further, the “Remaining rate (%)” value in data set [2] is 96.6%.

Regarding `CS(=O)(=O)CC(=O)Nc1c2c(nn1-c1ccc(C#N)cn1)C[C@]1(CCc3cc(N4CC(F)(F)C4)ccc31)NC2=O` [Compound I-67], the solubility at 16 h in data set [1] is above 50 µM. Further, in data set [2], the “Remaining rate (%)” value is 89%. Moreover, on recombinant human MGAT2 (setting [3]), the IC50 was determined as 7 nM.

As for `CS(=O)(=O)CC(=O)Nc1c2c(nn1CCCOC(F)(F)F)C[C@@]1(CCOc3cc(OCC(F)(F)F)ccc31)NC2=O` [II-121], the “Solubility” value in data set [1] was above 50 µM. For the same compound, the “Remaining rate (%)” value in data set [2] amounted to 89.7%. Moreover, at recombinant human MGAT2 (setting [4]), the IC50 stood at 2.91 nM.

`CS(=O)(=O)CC(=O)Nc1c2c(nn1-c1ccc(C(F)F)cc1)C[C@]1(CCc3cc(OCC(F)(F)F)ccc31)NC2=O` [II-174]: the concentration in solution in data set [1] (solubility at 16 h) came to 32.4 µM (≈ 19.4 µg/mL). Moreover, in data set [2], the “Remaining rate (%)” value is reported as 99.9%.

In data set [1], `Cc1ccc(-n2nc3c(c2C(=O)NS(=O)(=O)C2CC2)C(=O)N[C@@]2(CCc4cc(OCC(F)(F)F)ccc42)C3)nc1` [II-202] returned a solubility at 16 h above 50 µM. In data set [2], the “Remaining rate (%)” value is given as 98.7%. At recombinant human MGAT2 (setting [4]), the IC50 is 9.13 nM and < 1 nM.

For `Cc1ccc(-n2nc3c(c2NC(=O)C2CS(=O)(=O)C2)C(=O)N[C@@]2(CCOc4cc(OCC(F)(F)F)ccc42)C3)nc1` [II-270], in data set [1], the solubility at 16 h is above 50 µM. The “Remaining rate (%)” value in data set [2] was 99.9%. Besides, the IC50 on recombinant human MGAT2 (setting [4]) came to 1.26 nM.

With `Cc1cc(-n2nc3c(c2NC(=O)CS(C)(=O)=O)C(=O)N[C@@]2(CCOc4cc(OCCCC(F)(F)F)ccc42)C3)no1` [II-233], the solubility at 16 h in data set [1] is above 50 µM. In addition, in data set [2], the “Remaining rate (%)” value is recorded as 94.7%. In addition, the IC50 on recombinant human MGAT2 (setting [4]) is 0.224 nM.

Consider `O=C1N[C@@]2(CCOc3cc(OCCCC(F)(F)F)ccc32)Cc2nn(CCC3CC3)c(-c3nn[nH]n3)c21` [Compound I-200], for which, in data set [1], the solubility at 16 h was above 50 µM. In data set [2], the “Remaining rate (%)” value is given as 94%. At recombinant human MGAT2 (setting [3]), the IC50 turned out to be 5.6 nM.

Take `CS(=O)(=O)CC(=O)Nc1c2c(nn1-c1ccc(F)c(F)c1)C[C@]1(CCOc3cc(Cl)ccc31)NC2=O` [II-250]: the IC50 at recombinant human MGAT2 (setting [4]) turned out to be 3.91 nM.

As for `N#Cc1ccc(-n2nc3c(c2C(=O)NS(=O)(=O)c2ccccc2)C(=O)N[C@@]2(CCc4cc(OCC(F)(F)F)ccc42)C3)nc1` [II-215], the IC50 at recombinant human MGAT2 (setting [4]) was 77 nM.

`CCOc1ccc([C@]2(C)Cc3nn(-c4ccc(C)cn4)c(NC(=O)CS(C)(=O)=O)c3C(=O)N2)c(F)c1` [II-207]: the IC50 on recombinant human MGAT2 (setting [4]) was determined as 5.86 nM.

As for `CS(=O)(=O)CC(=O)Nc1c2c(nn1CCC1CC1)C[C@@]1(CCc3cc(N4CC(F)(F)C4)ccc31)NC2=O` [Compound I-165], the IC50 on recombinant human MGAT2 (setting [3]) is 5.2 nM.

As for `CNS(=O)(=O)Nc1c2c(nn1CCC1CC1)C[C@]1(CCc3cc(OCCCC(F)(F)F)ccc31)NC2=O` [Compound I-13], the IC50 on recombinant human MGAT2 (setting [3]) is 90 nM.

As to `Cc1ccc(-n2nc3c(c2C(=O)NCC2(C#N)CC2)C(=O)N[C@@]2(CCc4cc(OCC(F)(F)F)ccc42)C3)cc1F` [II-222], on recombinant human MGAT2 (setting [4]), the IC50 stood at 53.4 nM.

Regarding `CS(=O)(=O)CC(=O)Nc1c2c(nn1CCC1CC1)C[C@@]1(CCc3cc(N4CC(C(F)(F)F)C4)ccc31)NC2=O` [Compound I-166], on recombinant human MGAT2 (setting [3]), the IC50 is 7.1 nM.

The record behind these values is patent publication US11198695B2, “Fused ring derivative having MGAT-2 inhibitory activity” (Shionogi & Co., Ltd., priority 2017, dated 2021).
